Measurements reported in ChEMBL document CHEMBL1133525, “A selenopyrylium photosensitizer for photodynamic therapy related in structure to the antitumor agent AA1 with potent in vivo activity and no long-term skin photosensitization” (J Med Chem, 2000).

Assay: Partition coefficient (logP)
Type: physicochemical
Settings: octanol/water

| logP | SMILES |
| --- | --- |
| 0 | CN(C)c1ccc(-c2cc(-c3ccccc3)[s+]c(-c3ccc(N)cc3)c2)cc1 |
| 2.5 | CN(C)c1ccc(-c2cc(-c3ccccc3)[s+]c(-c3ccc(N(C)C)cc3)c2)cc1 |

The next lines start with the compound.

| SMILES | logP |
| --- | --- |
| CN(C)c1ccc(-c2cc(-c3ccccc3)[te+]c(-c3ccc(N(C)C)cc3)c2)cc1 | 2.5 |
| CN(C)c1ccc(-c2cc(-c3ccccc3)[te+]c(-c3ccc(N)cc3)c2)cc1 | 0.5 |
| CN(C)c1ccc(-c2cc(-c3ccccc3)[se+]c(-c3ccc(N(C)C)cc3)c2)cc1 | 2.4 |
| CN(C)c1ccc(-c2cc(-c3ccccc3)[se+]c(-c3ccc(N)cc3)c2)cc1 | 0.8 |
